Laboratory results taken from patent US9062047B2, “Crystalline form of pyrimido[6,1-A] isoquinolin-4-one compound” (Verona Pharma plc, priority 2010, dated 2015).

Columns and labels:
[1] = polymorph A (marketed) vs form B; cited from earlier work
[2] = Thermodynamic aqueous solubility by HPLC; type: physicochemical; details: purified water; for Aqueous solubility: pH 7, 25° C., 24 hours, 20 mg in 1 ml
Procedure: Thermodynamic Aqueous Solubility by HPLC: Aqueous solubility was determined by suspending sufficient compound in HPLC grade water to give a maximum final concentration of ≧20 mg ml^−1 of the parent compound. The suspension was equilibrated at 25° C. for 24 hours. The suspension was then filtered through a filter into a HPLC vial. The filtrate was then diluted by an appropriate factor. Quantification was executed by HPLC with reference to a standard solution of approximately 0.5 mg ml^−1 in Acetonitrile:Water: (1:1). Different volumes of the standard, diluted and undiluted sample solutions were injected. The solubility was calculated using the peak areas determined by integration of the peak found at the same retention time as the principal peak in the standard injection.
Analysis was performed on an Agilent 1100 series liquid chromatography, equipped with a UV detector (DAD or VWD) @254 nm and using Chemstation Rev.B.01.03 software for data processing. Chemical purity determination by HPLC.
As amorphous material and Form I were in hand, both samples were exposed to a straight forward aqueous solubility study in purified water at 25° C. This experiment was performed as it was unknown whether crystalline or amorphous material was initially isolated in-house during a previous synthesis campaign.
• A suspension of 20 mg of the candidate was mixed in purified water (1 ml, pH 7). The suspension was equilibrated at 25° C. for 24 hours. The suspension was then filtered into an HPLC vial and the filtrate then diluted by an appropriate factor with quantification being executed by HPLC with reference to a standard solution.

[3] = Crash cooling of a melt, LC/HPLC analysis (stability at temperature); type: physicochemical
Procedure: As there was historical experimental proof of generating amorphous material by heating RPL554 Form I up to 245° C. and rapidly cooling the melt, a repeat of this method was performed (TGA basis) and produced the same, clear, yellow, glass like material.
A proposed glass transition can be observed at approximately 120° C., with no formal recrystallisation observed. While this experiment was running, the sample was submitted for LC analysis, as stability at temperature was known to be a potential issue (observation of TGA). […] The experiment was repeated at a lower temperature (240° C.), this trying to avoid decomposition and thus return a better profile in terms of purity. LC analysis returned a similar profile of very low purity and various secondary products. It was therefore apparent that amorphous material would not be generated in this manner.

[4] = Slurry maturation (heat/cool cycles), XRPD; type: physicochemical; details: 24 solvents, cycled 20° C./50° C., 8 hour periods, 4 days
Procedure: 24× Slurry maturations were performed in an attempt to stress the current crystalline solid into undergoing form transformation.
• Some 20 mg of material was agitated in glass tubes in approximately 30 volumes of solvent and cycled between isothermal periods (8 hours) of 20° C. and 50° C. After 4 days of cycling, the solids were filtered off and dried in vacuo at 45° C. prior to analysis by XRPD. All results were compared to the starting material, RPL554 (Form I); see Table 4.

[5] = Applied pressure (100 KN), XRPD and DSC; type: physicochemical; details: overnight, 10 mg
Procedure: Applied pressure (100 KN): 10 mg of RPL554 was left in a pressing disc system overnight, forming a fine and uniform disc with a thickness of less than 0.1 mm. The disc was gently ground and analysed by XRPD (FIG. 13).

SMILES | Difference in bio-activity between form A and form B [1] | Aqueous solubility compared with Form I ([2]; 25° C.) | Aqueous solubility [2] [µg/mL] | Product by HPLC analysis after crash cooling a melt ([3]; crash cooled melt, amorphous by XRPD) [%] | Starting material remaining by LC after crash cooled melt ([3]; heated up to 245° C. and rapidly cooled) [%] | Form change on slurry maturation (XRPD) [4] | Form change under applied pressure (XRPD) [5]
CCCCCCCCCCCCCCCC(=O)OC[C@@H](NC(=O)C(Cl)Cl)[C@H](O)c1ccc([N+](=O)[O-])cc1 [Chloramphenicol-3-palmitate] | eight |  |  |  |  |  | 
COc1cc2c(cc1OC)-c1c/c(=N\c3c(C)cc(C)cc3C)n(CCNC(N)=O)c(=O)n1CC2 [JN376F] |  | more soluble than Form I | 30 |  |  |  | 
COc1cc2c(cc1OC)-c1c/c(=N\c3c(C)cc(C)cc3C)n(CCNC(N)=O)c(=O)n1CC2 [RPL554, N-{2-[(2E)-2-(mesitylimino)-9,10-dimethoxy-4-oxo-6,7-dihydro-2H-pyrimido[6,1-a]-isoquinolin-3 (4H)-yl]ethyl}urea] |  |  | 1 | < 20 | 26 | extremely resilient to change | generates an amorphous phase
